Calls of active or inactive are those of the source. No cut-off for these calls is given here.

The values that follow come from ChEMBL document CHEMBL5154927, “Discovery of Novel Bicyclic Phenylselenyl-Containing Hybrids: An Orally Bioavailable, Potential, and Multiacting Class of Estrogen Receptor Modulators against Endocrine-Resistant Breast Cancer” (J Med Chem, 2022).

Data set [1] concerns LCC2. Description: Induction of apoptosis in tamoxifen-resistant human LCC2 cells assessed as increase in late apoptotic cells at 5 to 30 uM incubated for 48 hrs by annexin V-FITC staining based flow cytometry. The format is functional, cell-based. To be noted: dose 5-30 µM. For orientation: In flow cytometry, cells or beads pass a laser one at a time.
Data set [2] has as its system MCF7. The experiment in a line: Induction of apoptosis in human MCF7 cells assessed as total apoptotic cells at 1 uM incubated for 48 hrs by annexin V-FITC staining based flow cytometry. The format is functional.
The nature of data set [3]: Tmax in BALB/C mouse at 5 mg/kg, iv by LC-MS/MS analysis. The format is ADME, organism-based. To be noted: in vivo.
In data set [4] the test system is MCF7. The experiment in a line: Induction of apoptosis in human MCF7 cells assessed as decrease in Bcl-2/Bax ratio by western blot analysis. To be noted: DDE = dose-dependent effect. The format is functional, cell-based.
Data set [5] in a line: Volume of distribution at steady state in BALB/C mouse at 5 mg/kg, iv by LC-MS/MS analysis. To be noted: in vivo, read-out: Vdss. The format is ADME, organism-based.
Data set [6] has as its system LCC2. The experiment in a line: Induction of apoptosis in tamoxifen-resistant human LCC2 cells assessed as decrease in Bcl2 level at 5 to 30 uM incubated for 48 hrs by western blot analysis. The format is functional, cell-based. To be noted: dose 5-30 µM. In general terms: Immunoblotting shows a protein as a band on a membrane.
Data set [7] is described as follows: Half life in BALB/C mouse at 20 mg/kg, po by LC-MS/MS analysis. To be noted: in vivo. The format is ADME, organism-based.
Data set [8] relates to MCF7. Description: Antitumor activity against human MCF7 cells xenografted in BALB/C mouse assessed as decrease in cell proliferation at 20 mg/kg, po by Ki67 staining based immunohistochemical analysis. The format is functional, organism-based. In general terms: Xenograft models place foreign cells or tissue in a host animal.
The nature of data set [9]: Toxicity in BALB/C mouse xenografted with human MCF7 cells assessed as morphological changes in heart at 10 to 20 mg/kg, po by hematoxylin and eosin staining based analysis. The format is organism-based. To be noted: in vivo, dose 10-20 mg/kg.
Data set [10] concerns MCF7. The experiment in a line: Induction of apoptosis in human MCF7 cells assessed as increase in late apoptotic cells at 0.5 to 4 uM incubated for 48 hrs by annexin V-FITC staining based flow cytometry. The format is functional, cell-based. To be noted: dose 0.5-4 µM.
Data set [11] can be described thus: Oral bioavailability in BALB/C mouse at 20 mg/kg by LC-MS/MS analysis. The format is ADME, organism-based. To be noted: in vivo.
Data set [12] is described as follows: Antitumor activity against tamoxifen-resistant human LCC2 cells xenografted in BALB/C mouse assessed as tumor growth inhibition at 20 mg/kg, po measured every 2 days for 22 days. The format is functional. To be noted: LCC2, 528 h, time 22 day, read-out: TGI.
Data set [13] is described as follows: Antiproliferative activity against human MCF-10A cells assessed as reduction in cell viability measured after 72 hrs by Cell Counting Kit-8 assay. The format is toxicity, cell-based.
Data set [14] is described as follows: AUC in BALB/C mouse at 20 mg/kg, po by LC-MS/MS analysis. The format is ADME, organism-based. Set-up: dose 20 mg/kg, route po. To be noted: in vivo.
Data set [15] in a line: Half life in BALB/C mouse at 5 mg/kg, iv by LC-MS/MS analysis. To be noted: in vivo. The format is ADME, organism-based.
Data set [16] has as its system LCC2. The experiment in a line: Induction of ROS production in tamoxifen-resistant human LCC2 cells at 1 to 4 uM measured after 48 hrs by DCFH-DA staining based confocal laser scanning microscopic method. The format is functional, cell-based. To be noted: dose 1-4 µM.
The subject of data set [17] is MCF7. Description: Downregulation of hexokinase-1 expression in human MCF7 cell outer mitochondrial membrane at 1 to 16 uM measured after 24 hrs by Western blot analysis. To be noted: Mitochondria, dose 1-16 µM. The format is functional.
The test system of data set [18] is MCF7. The experiment in a line: Induction of mitochondrial membrane potential loss in human MCF7 cells at 4 uM incubated for 48 hrs by JC-1 staining based flow cytometry relative to control. The format is functional.
Data set [19] concerns the target T1, Hexokinase-1 (Homo sapiens) (UniProt P19367).
T1 sequence (whole entry): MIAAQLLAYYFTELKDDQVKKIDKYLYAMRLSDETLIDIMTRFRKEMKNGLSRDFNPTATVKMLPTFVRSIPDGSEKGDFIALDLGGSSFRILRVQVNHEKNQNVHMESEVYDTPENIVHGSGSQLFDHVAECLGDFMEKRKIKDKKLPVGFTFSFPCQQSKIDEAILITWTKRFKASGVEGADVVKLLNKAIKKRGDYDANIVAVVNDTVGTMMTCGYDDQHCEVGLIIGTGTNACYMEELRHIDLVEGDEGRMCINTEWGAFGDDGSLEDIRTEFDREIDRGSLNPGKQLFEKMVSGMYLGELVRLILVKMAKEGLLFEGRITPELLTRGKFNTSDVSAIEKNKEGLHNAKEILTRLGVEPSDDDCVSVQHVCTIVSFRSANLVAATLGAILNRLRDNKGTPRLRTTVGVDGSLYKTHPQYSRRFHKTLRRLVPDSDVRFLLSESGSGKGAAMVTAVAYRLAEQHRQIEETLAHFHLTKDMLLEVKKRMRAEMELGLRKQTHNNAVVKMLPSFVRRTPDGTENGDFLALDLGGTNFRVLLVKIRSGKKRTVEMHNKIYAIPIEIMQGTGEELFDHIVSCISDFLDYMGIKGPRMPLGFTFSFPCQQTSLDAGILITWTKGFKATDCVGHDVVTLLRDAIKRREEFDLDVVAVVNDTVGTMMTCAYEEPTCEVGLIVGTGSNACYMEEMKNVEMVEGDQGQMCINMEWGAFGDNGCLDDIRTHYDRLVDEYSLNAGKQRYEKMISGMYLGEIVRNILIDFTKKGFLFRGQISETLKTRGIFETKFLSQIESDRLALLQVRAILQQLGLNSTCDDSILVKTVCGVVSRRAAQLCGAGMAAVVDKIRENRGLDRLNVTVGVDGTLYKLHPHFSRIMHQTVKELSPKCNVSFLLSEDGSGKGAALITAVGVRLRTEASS
The experiment in a line: Inhibition of human recombinant hexokinase-1 assessed as NADPH generation measured after 1 hr by HPLC analysis. To be noted: DDE = dose-dependent effect.

Data set [20] is described as follows: Toxicity in BALB/C mouse xenografted with tamoxifen-resistant human LCC2 cells assessed as mortality at 20 mg/kg, po measured after 22 days. To be noted: in vivo, 528 h, time 22 day. The format is organism-based.
Data set [21] can be described thus: Toxicity in BALB/C mouse xenografted with human MCF7 cells assessed as change in body weight at 10 to 20 mg/kg, po measured every 2 days for 34 days. The format is organism-based. To be noted: in vivo, 816 h, dose 10-20 mg/kg, time 34 day.

What is called Tmax is the time from dosing to the highest level. As usually defined, the half-life is how long it takes for the measured level to halve. Read a low half-life as fast loss. In general, bioavailability refers to dose-corrected exposure relative to a reference, in per cent. As a reminder, the IC50 is the point on the concentration scale where inhibition reaches its midpoint. A word on the AUC: it is the area under the concentration-time curve, a measure of exposure. Low values mean low exposure, high ones high exposure. As for `O=S(=O)(Oc1cccc2ccccc12)C1CC2OC1C(c1ccc([Se]c3ccccc3)cc1)=C2c1ccc(O)cc1` (stereo unspecified), the outcome in the data set with LCC2 [1], in the data set with LCC2 [6], in the data set on MCF7 [8], in the data set with MCF7 [10], in the data set with LCC2 [16] and in the data set on MCF7 [17] was Active. For the same compound, the Activity was 15.15% in the data set on MCF7 [2]; “Dde” in the data set on MCF7 [4]; “Non-Toxic” in data set [9]; 13.87% in the data set with MCF7 [18]; “Dde” in data set [19]; “Non-Toxic” in data set [20]. In data set [21], the Activity entry is reported as “Non-Toxic”. In data set [3], the Tmax is 4.98 min. Further, in [5], the Vd amounted to 21.6 L/kg. In addition, the half-life in data set [7] is 55.8 min; in data set [15], 279 min. The bioavailability in [11] was 23.2%. The inhibition in vivo at 20 mg/kg in data set [12] worked out at 57.3%. In addition, the half-maximal inhibitory concentration (IC50) at 72 h in [13] was greater than 60 µM. This compound displayed an AUC in [14] of 1.43 µg·h/mL.
